Here are results for one compound from patent publication US20250017889A1, “INHIBITORS OF P1B-TYPE ATPASES” (THE CURATORS OF THE UNIVERSITY OF MISSOURI, priority 2021, published 2025).

One assay addresses T1, ATP7A(E1030K) (Homo sapiens, UniProt Q04656, E1030K).
T1 construct: expressed in transfected cells; host or cells: HEK293 (detergent-free lysate)
T1 sequence (Q04656 1-1500 E1030K): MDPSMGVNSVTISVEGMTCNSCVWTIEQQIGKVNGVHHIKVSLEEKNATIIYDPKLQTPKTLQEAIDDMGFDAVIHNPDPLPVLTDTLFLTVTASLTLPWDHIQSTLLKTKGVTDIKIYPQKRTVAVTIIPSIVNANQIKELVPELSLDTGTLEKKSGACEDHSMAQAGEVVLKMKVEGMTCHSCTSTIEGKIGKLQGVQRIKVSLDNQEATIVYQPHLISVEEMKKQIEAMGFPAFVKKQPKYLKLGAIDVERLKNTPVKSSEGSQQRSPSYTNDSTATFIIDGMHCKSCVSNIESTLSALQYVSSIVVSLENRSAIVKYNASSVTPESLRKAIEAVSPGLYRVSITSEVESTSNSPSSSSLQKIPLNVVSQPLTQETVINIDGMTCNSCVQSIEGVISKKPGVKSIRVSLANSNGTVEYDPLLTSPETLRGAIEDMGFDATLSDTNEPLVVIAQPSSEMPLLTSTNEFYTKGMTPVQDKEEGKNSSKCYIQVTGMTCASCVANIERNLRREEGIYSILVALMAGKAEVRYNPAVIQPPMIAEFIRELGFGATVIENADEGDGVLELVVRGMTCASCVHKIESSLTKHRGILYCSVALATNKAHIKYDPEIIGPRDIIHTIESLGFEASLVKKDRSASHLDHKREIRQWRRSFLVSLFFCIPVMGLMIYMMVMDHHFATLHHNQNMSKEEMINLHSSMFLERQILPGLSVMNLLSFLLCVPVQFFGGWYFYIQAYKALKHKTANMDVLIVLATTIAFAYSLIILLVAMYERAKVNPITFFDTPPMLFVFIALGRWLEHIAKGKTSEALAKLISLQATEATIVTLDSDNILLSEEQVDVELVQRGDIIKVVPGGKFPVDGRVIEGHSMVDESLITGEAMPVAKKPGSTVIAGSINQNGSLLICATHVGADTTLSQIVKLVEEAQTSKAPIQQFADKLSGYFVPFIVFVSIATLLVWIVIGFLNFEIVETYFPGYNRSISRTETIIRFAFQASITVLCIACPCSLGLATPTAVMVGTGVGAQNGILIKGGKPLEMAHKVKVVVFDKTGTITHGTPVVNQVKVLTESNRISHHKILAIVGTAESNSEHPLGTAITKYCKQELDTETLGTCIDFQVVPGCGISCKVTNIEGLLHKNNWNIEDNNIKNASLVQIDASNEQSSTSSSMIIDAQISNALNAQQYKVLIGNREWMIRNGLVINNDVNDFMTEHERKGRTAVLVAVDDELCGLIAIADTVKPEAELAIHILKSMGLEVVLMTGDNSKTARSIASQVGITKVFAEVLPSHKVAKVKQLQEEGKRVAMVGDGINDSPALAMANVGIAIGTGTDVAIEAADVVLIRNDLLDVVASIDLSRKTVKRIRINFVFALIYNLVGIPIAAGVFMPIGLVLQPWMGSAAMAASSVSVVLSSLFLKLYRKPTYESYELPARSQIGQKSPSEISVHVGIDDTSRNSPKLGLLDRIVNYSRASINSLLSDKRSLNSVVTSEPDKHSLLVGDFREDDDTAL
Put plainly: Microscale thermophoresis (MST) binding to GFP-ATP7A(E1030K) mutant. Particulars: relative to wild type ATP7A. The text has this: 7A is a model of MKV3-coordinating residues in ATP7A which are identical to those of ATP7B except that the negatively charged glutamate at position 1030 (E1030) of ATP7A corresponds to a positively lysine at position 1013 (K1013) in ATP7B. […] To confirm this the E1030 residue in ATP7A was mutated to a lysine to generate an ATP7A(E1030K) mutant protein.
(MST reads how a fluorescent partner responds to local heating, with and without ligand.)

In another assay the test system is 4T1 mammary cancer cells. In words: Orthotopic 4T1 mammary tumor growth and lung metastasis in mice. The class given is in vivo, BALB/c mice.
The next assay deals with LOX activity. Put plainly: LOX activity secreted into conditioned media of cancer cells. The class given is cell-based. To be noted: 5 μM, 4 days.
Assay [1] deals with ΔcopA/ΔcopB strain of S. aureus. Put plainly: Growth of copper-sensitive ΔcopA/ΔcopB mutant strain of S. aureus. The class given is cell-based, Staphylococcus aureus. To be noted: MKV3 with copper 50 μM. On the procedure:
Methicillin-resistant Staphylococcus aureus (MRSA) is a human pathogen that expresses two Cu-transporting P1B-type ATPases, CopA and CopB, which are known to enhance the virulence of this bacterium. 19A illustrates CopA and CopB copper exporters at the plasma membrane of S. aureus. […] The growth of the ΔcopA/ΔcopB strain was inhibited by approximately 50% when copper alone (50 μM) was added to the culture medium.
Wild type MRSA expresses two copper-exporting P1B-type ATPases, CopA and CopB that are required for copper tolerance (FIG. 19A). […] The same experiment was performed using MRSA in which both CopA and CopB genes were deleted (ΔcopA/ΔcopB). Consistent with the known role of CopA and CopB in copper tolerance, the growth of the ΔcopA/ΔcopB strain was inhibited by approximately 50% when copper alone (50 μM) was added to the culture medium (FIG. 19C).

For assay [2], the system named is 4T1 breast cancer cells and LLC lung cancer cells. Put plainly: In vitro scratch assay of cell motility (gap closure). Particulars: 10 μM. The class given is cell-based. An excerpt:
LOX activity is known to be important for the motility of cancer cells. In this assay, a gap (scratch) was created in a confluent monolayer of cells and closure of the gap in the presence or absence of MKV3 was monitored by video microscopy. […] Dashed lines indicate scratch starting points (12A and 12C). […] The requirement for ATP7A in cancer cell motility is consistent with its role in activation of lysyl oxidase enzymes.

The subject of assay [3] is ATP7A trafficking in 4T1 breast cancer cells. Put plainly: Copper-stimulated trafficking of ATP7A by immunofluorescence microscopy. The class given is cell-based. Particulars: 10 μM, 4 h, 4T1 cells. Here is the method:
Since the copper-stimulated trafficking of ATP7A is dependent on its transport activity, an inhibitor of ATP7A would be expected to block copper-stimulated trafficking of ATP7A. 4T1 breast cancer cells were pre-grown on glass coverslips for 16 hours in media containing 10 μM of the copper chelator bathocuproine disulfonate to create a baseline of low copper levels. […] After 4 h, the cells were fixed, permeabilized and stained with anti-ATP7A antibodies (green). Nuclei were labeled with DAPI stain. In vehicle treated control cells, the ATP7A protein was strongly detected in the perinuclear region (13A), which is consistent with its known location in the trans-Golgi compartment. As expected, the copper treatment stimulated ATP7A trafficking from the perinuclear region into cytoplasmic vesicles (13B).

[4] abbreviates: intravenous 50 mg/kg every Tuesday and Thursday for 3 weeks.
Setting [5] is: subcutaneous 50 mg/kg every Monday, Wednesday and Friday for 3 weeks.

For the compound `N#CC(C(=O)Nc1cccc(C(F)(F)F)c1)C(=S)Nc1ccccc1Cl` (centres unmarked) [MKV3], the “increase of binding affinity by E1030K mutation in ATP7A” value at ATP7A(E1030K) was “approximately 2.7 fold”. The metastatic lung burden entry in the assay with 4T1 mammary cancer cells (setting [4]) is “reduced”. The “weights of 4T1 primary tumors” value in the assay on 4T1 mammary cancer cells (setting [4]) is “reduced”. Moreover, the lung metastasis entry with 4T1 mammary cancer cells (setting [5]) is reported as “significantly reduced”. For the same compound, the primary tumor growth result in the assay on 4T1 mammary cancer cells (setting [5]) is reported as “significantly reduced”. Also, the “LOX activity in conditioned media” value in the assay with LOX activity (4T1 breast cancer cells) and with LOX activity (LLC lung cancer cells) was “reduction in LOX activity” in each case. The “copper sensitivity in the ΔcopA/ΔcopB strain” value in assay [1] was “did not increase copper sensitivity”. Besides, the “rate of gap closure” value in assay [2] (4T1 cells) and in assay [2] (LLC cells) was “significantly reduced” in each case. Moreover, the “copper-stimulated trafficking of ATP7A” value in assay [3] is “blocked”.
